Data set [1] can be described thus: Rat plasma protein binding, blood to plasma ratio, unbound fraction in whole blood. It is filed as in vitro ADME. The conditions noted are these: for fraction unbound: rat. As for the experimental part: Next, cells were stained with Fc block (550,273, BD bioscience, 1:100; 20 mins, RT), CD45R-B220-PeCy7 (HIS24) (25–0460-82, eBioscience, 1:100), CD43-PE (W3/13) (202,812, Biolegend, 1:100), HIS48-FITC (11–0570-82, eBioscience, 1:100), CD11b-APC (562,102, BD Bioscience, 1:100). Cells were lysed and fixed with BD FACS lysing solution (349,202, BD Biosciences; 45 mins, RT) before FACS acquisition (BD LSRFortessa™). Data were analysed using FlowJo 9.9 software (TreeStar). FACS gating strategy: lymphocytes (FSC-A vs SSC-A), doublets exclusion (FSC-W vs FSC-H), neutrophil identification B220-, HIS48hi, CD43hi, SSC-Ahi, geom. MFI for CD11b on neutrophils. IC50 values were determined in Graph Pad through a nonlinear fit on log transform data: log inhibitor vs response, variable slope, 4 parameters. Fraction unbound in diluted whole blood is calculated using the following equation: fu^′=DF·fub/1+DF-1·fub where fu’ is the fraction unbound in diluted whole blood; fub is the fraction unbound in undiluted whole blood; DF is the dilution factor. Fraction unbound in 100% whole blood (fub) is calculated as fup/BP, where fup is the experimentally determined fraction unbound in undiluted plasma and BP is the experimentally determined blood to plasma partition ratio of drug Table 1.

In data set [2] the test system is Brown Norway rats, OVA sensitised and challenged. As to the kind of experiment: Rat model of allergic asthma: BAL cellular inflammation. In kind it is in vivo, Brown Norway rat. The conditions noted are these: BAL 24 hrs after OVA challenge; i.t. dosing. The procedure:
(§1) Male, adult, Brown Norway rats were obtained from Charles River Germany at a body weight range of 250-300 g. Animals were housed in temperature controlled individually ventilated cages in groups of 4 with food and water provided ad libitum. Animals underwent acclimatisation for at least 1 week prior to experimentation. Experiments were performed in accordance with the UK Home Office guidelines for animal welfare based on the Animals (Scientific Procedures) Act of 1986 and the ARRIVE guidelines (Fig. E2).
(§2) Initially a time course study was performed, followed by a characterisation study with compound & clinical comparator. For both studies, rats were sensitised on day 0, 14 and 21 by an intraperitoneal (i.p.) injection of 4 mL/kg (1 mL/rat) of ovalbumin (OVA;100 μg/rat) in Imject™ Alum (20 mg/rat aluminium hydroxide and 20 mg/rat magnesium hydroxide) or sham sensitised (Saline [Sal] in Imject™ Alum). On day 28 rats were challenged with 1% (w/v) aerosolised OVA in isotonic saline, or sham challenged with isotonic saline (30 mins).
Following blood collection, rats underwent tracheostomy and were cannulated. Rats were lavaged and bronchoalveolar lavage (BAL) fluid was collected (2 × 3 mL RPMI, 30 secs, 70% vol. retained). Slides were prepared using 100 μL of neat BAL, centrifuged (700 rpm, 5 mins, RT, low acceleration; Cytospin 2, Shandon, Runcorn, UK). 800 μL of neat BAL was collected and centrifuged (800×g, 10 mins, 4 °C). Supernatant was collected and stored (− 80 °C), and cell pellet was resuspended (200 μL, RPMI), total leukocytes were attained using a Sysmex XP-300 automated cell counter (Sysmex Ltd., Milton Keynes, UK). Remaining BAL was centrifuged (800×g, 10 mins, 4 °C) and supernatant collected and stored (− 80 °C).
BAL cytospin slides were placed in an automated stainer (Hematek 2000, Ames. Co., USA) and stained with a Modified-Wright stain (Siemens, Germany). Differential cell counts using a light microscope were performed based on morphological criteria were performed to determine percentages of macrophages/monocytes, lymphocytes, neutrophils & eosinophils. Total numbers of each distinct cell type were determined based on total leukocyte numbers.

Data set [3] shares this test system. As to the kind of experiment: Rat model of allergic asthma: late asthmatic response (Penh, whole body plethysmography). It is filed as in vivo, Brown Norway rat. The conditions noted are these: 1-6 hrs after OVA challenge; i.t. dosing. As for the experimental part:
as §1
Initially a time course study was performed, followed by a characterisation study with compound & clinical comparator. For both studies, rats were sensitised on day 0, 14 and 21 by an intraperitoneal (i.p.) injection of 4 mL/kg (1 mL/rat) of ovalbumin (OVA;100 μg/rat) in Imject™ Alum (20 mg/rat aluminium hydroxide and 20 mg/rat magnesium hydroxide) or sham sensitised (Saline [Sal] in Imject™ Alum). […]
In both studies, 30 mins post-challenge, rats were placed unrestrained in Perspex plethysmographs connected to bias flow pumps (DSI Europe Ltd), with food and water ad libitum. 55 mins post-challenge, a five mins baseline recording was taken and the average penh and area under the curve (AUC) was recorded at 10 mins intervals for a total duration of 5 hrs and was used for analysis (DSI Europe Ltd).

The nature of data set [4]: Lung tissue and plasma levels after intratracheal dosing (LC-MS/MS). In kind it is in vivo. The procedure:
as §2
For the time course study, animals were terminally anaesthetized, via overdose i.p. with sodium pentobarbitone (200 mg/kg), 1–24 hrs post antigen challenge. For the compound study, animals were terminally anaesthetised, via overdose i.p. with sodium pentobarbitone (200 mg/kg), 2 or 24 hrs post antigen challenge. […]
50 μL plasma was protein precipitated by addition of 180 μL acetonitrile containing 0.2% formic acid & 50 nM internal standard. […] Plasma concentrations of AZD8154 were determined by liquid chromatography with tandem mass spectrometric detection (LC-MS/MS).
Lung pieces were weighed and homogenised in a 1 mL ringer solution using bead-beating technology (Bertin Technologies, Montigny le Bretonneux, France). […] Lung concentrations of AZD8154 were determined by LC-MS/MS. […]

Read-outs that look alike come from different tables or passages of the source.

`Cc1nc(Nc2cccc(N3CCCC3=O)n2)sc1-c1cc2c(c(S(C)(=O)=O)c1)C(=O)N([C@@H](C)C1CC1)C2` [AZD8154]: in data set [1] (blood to plasma partition ratio), the “Rat B/P ratio” value is 0.82. Moreover, the Rat fub in data set [1] (fraction unbound in 100% whole blood, fup/BP) was found to be 0.018. Further, the fraction unbound in data set [1] (diluted whole blood (PI3K γ assay), fraction unbound in diluted whole blood, DF 1.05 (γ assay), read-out: fu’) was 0.0192; in data set [1] (plasma, rat plasma, fraction unbound, read-out: Rat ppb (fu, %)), 0.015; in data set [1] (plasma, undiluted rat plasma, fraction, read-out: Rat plasma fu), 0.015. For the same compound, the BAL eosinophils result in data set [2] was “statistically significant decrease”. For the same compound, in data set [2], the BAL neutrophils result was “statistically significant decrease”. Besides, in data set [3], the “LAR (Penh, AUC)” value was “statistically significant dose-dependent decrease”. In data set [4] (i.t. 0.02, 0.1, 0.3 mg/kg, 2 & 24 hrs post-challenge), the “Mean concentration in lung tissue and plasma versus dose” value is “increased with increasing dose”. Moreover, the “level in lung tissue compared to plasma” value in data set [4] (i.t., up to 24 hrs post-dosing) was “significantly higher in the lung tissue”.

The values above are taken from PMC11040934, “PI3Kγδ inhibition suppresses key disease features in a rat model of asthma” (Respiratory Research, 2024).
